# Laboratory results taken from patent publication US9499535B2, “Kinase inhibitors” (ORIGENIS GMBH, priority 2011, dated 2016).
# Legend:
# LRRK2 = LRRK2 (Homo sapiens, UniProt Q5S007); test: LRRK2 assay (LanthaScreen Eu Kinase Binding Assay); conditions: 5 nM LRRK2, 10 nM tracer 236, RT 1 h; read-out: LRRK2 Activites: IC50
# Method in brief: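 IC50 was derived from a sigmoidal dose-response fit with variable slope, plotting emission ratio against inhibitor concentration. The read-out is loss of FRET between a europium-labelled anti-tag antibody on the kinase and a tracer displaced by inhibitor.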
# SYK kinase = target: T1, SYK kinase (Homo sapiens, UniProt P43405); test: SYK assay (OMNIA Kinase Assay, Invitrogen); format: biochemical; conditions: apparent Ki calculated from the IC50 using the Cheng-Prusoff equation; 1 mM ATP, 10 μM Peptide Substrate; read-out: SYK Activities: Ki
# T1 construct: purchased Invitrogen, Carlsbad
# Method in brief: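 Reaction velocities were measured from kinetic fluorescence reads (360/485 nm, every 30 s over 30 min) of Mg2+-chelated SOX signal. Conditions were 1 mM ATP, 10 μM Omnia Tyr 7 peptide and 0.2 mM DTT at 30° C. Sigmoidal IC50 fits were converted to apparent Ki using Cheng-Prusoff.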
# Chain of LRRK2 (Q5S007 970-2527 limits assumed): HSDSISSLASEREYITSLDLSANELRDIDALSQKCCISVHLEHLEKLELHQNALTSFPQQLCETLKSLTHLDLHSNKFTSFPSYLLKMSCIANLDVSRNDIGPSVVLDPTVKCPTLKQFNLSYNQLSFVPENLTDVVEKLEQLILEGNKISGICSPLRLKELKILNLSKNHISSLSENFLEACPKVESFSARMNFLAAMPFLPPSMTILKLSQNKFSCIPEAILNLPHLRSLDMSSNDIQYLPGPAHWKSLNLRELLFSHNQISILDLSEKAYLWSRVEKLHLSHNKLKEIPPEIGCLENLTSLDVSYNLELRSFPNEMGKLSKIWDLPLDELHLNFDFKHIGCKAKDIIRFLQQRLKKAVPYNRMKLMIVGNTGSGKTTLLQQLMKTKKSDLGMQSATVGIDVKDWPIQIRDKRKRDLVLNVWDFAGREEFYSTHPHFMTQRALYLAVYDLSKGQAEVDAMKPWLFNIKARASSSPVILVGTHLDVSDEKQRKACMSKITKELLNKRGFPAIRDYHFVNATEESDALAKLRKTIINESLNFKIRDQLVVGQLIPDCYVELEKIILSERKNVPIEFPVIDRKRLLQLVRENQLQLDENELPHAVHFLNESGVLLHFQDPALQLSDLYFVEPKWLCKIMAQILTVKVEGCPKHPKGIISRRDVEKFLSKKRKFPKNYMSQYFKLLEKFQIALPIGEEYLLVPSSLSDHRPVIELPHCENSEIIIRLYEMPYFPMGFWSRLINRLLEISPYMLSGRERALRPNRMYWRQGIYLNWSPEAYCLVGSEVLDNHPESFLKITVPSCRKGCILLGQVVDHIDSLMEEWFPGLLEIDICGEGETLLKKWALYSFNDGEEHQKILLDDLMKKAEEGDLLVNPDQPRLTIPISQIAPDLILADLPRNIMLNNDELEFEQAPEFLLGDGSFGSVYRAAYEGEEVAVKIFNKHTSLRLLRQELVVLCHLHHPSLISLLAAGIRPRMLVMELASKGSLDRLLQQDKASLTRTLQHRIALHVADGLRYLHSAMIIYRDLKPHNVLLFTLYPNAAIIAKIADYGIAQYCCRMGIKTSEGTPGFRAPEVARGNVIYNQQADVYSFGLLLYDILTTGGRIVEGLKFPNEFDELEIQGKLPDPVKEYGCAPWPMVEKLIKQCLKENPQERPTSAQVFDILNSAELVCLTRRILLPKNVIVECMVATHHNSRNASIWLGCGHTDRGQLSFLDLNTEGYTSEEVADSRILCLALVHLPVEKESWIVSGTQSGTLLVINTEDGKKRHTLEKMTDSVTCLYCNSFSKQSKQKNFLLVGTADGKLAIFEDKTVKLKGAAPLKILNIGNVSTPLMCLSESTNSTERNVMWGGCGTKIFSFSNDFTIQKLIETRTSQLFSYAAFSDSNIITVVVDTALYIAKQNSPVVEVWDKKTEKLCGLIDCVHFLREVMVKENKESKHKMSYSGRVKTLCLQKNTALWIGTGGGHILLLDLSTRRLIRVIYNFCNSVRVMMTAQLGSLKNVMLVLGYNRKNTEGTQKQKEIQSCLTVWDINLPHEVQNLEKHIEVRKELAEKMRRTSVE
SMILES,IC50 (LRRK2) [nM],Ki (SYK kinase) [nM]
"COc1ccc2nc(Nc3cc(C)n[nH]3)c3[nH]ncc3c2c1 [Example #96, (8-Methoxy-3H-pyrazolo[3,4-c]quinolin-4-yl)-(5-methyl-2H-pyrazol-3-yl)-amine]",10 to 100,10 to 100
"COc1ccc2nc(Nc3ccc(OCC(=O)O)c(OC)c3)c3n[nH]cc3c2c1 [Example #279, 2-(2-methoxy-4-((8-methoxy-2H-pyrazolo[3,4-c]quinolin-4-yl)amino)phenoxy)acetic-acid]",100 to 1000,100 to 1000
"COc1ccc2nc(Nc3ccc(C(O)(C(F)(F)F)C(F)(F)F)cc3)c3n[nH]cc3c2c1 [Example #321, 1,1,1,3,3,3-hexafluoro-2-(4-((8-methoxy-2H-pyrazolo[3,4-c]quinolin-4-yl)amino)phenyl)propan-2-ol]",100 to 1000,100 to 1000
"COc1ccc(Nc2nc3ccc(C#N)cc3c3c[nH]nc23)cc1OC [Example #216, 4-(3,4-Dimethoxy-phenylamino)-2H-pyrazolo[3,4-c]quinoline-8-carbonitrile]",100 to 1000,10 to 100
"COc1ccc2nc(Nc3ccc4c(c3)N=C(NCCCO)CO4)c3n[nH]cc3c2c1 [Example #313, 3-((6-((8-methoxy-2H-pyrazolo[3,4-c]quinolin-4-yl)amino)-2H-benzo[b][1,4]oxazin-3-yl)amino)propan-1-ol]",10 to 100,10 to 100
"COc1ccc2nc(Nc3cc(C4CC4)[nH]n3)c3[nH]ncc3c2c1 [Example #97, (5-Cyclopropyl-1H-pyrazol-3-yl)-(8-methoxy-3H-pyrazolo[3,4-c]quinolin-4-yl)-amine]",10 to 100,< 10
"Brc1ccc2nc(Nc3ccc4[nH]ncc4c3)c3n[nH]cc3c2c1 [Example #45, (8-Bromo-2H-pyrazolo[3,4-c]quinolin-4-yl)-(1H-indazol-5-yl)-amine]",100 to 1000,10 to 100
"COc1ccc2nc(Nc3cccc(S(=O)(=O)NC4CC4)c3)c3n[nH]cc3c2c1 [Example #344, N-cyclopropyl-3-((8-methoxy-2H-pyrazolo[3,4-c]quinolin-4-yl)amino)benzenesulfonamide]",10 to 100,10 to 100
"CC(=O)N1CCN(c2ccc(Nc3nc4ccc(I)cc4c4cn[nH]c34)cc2)CC1 [Example #357, 1-(4-(4-((8-iodo-3H-pyrazolo[3,4-c]quinolin-4-yl)amino)phenyl)piperazin-1-yl)ethan-1-one]",100 to 1000,10 to 100
"COc1cccc2c1nc(Nc1ccc(N3CCSCC3)cc1)c1n[nH]cc12 [Example #247, (6-Methoxy-2H-pyrazolo[3,4-c]quinolin-4-yl)-(4-thiomorpholin-4-yl-phenyl)-amine]",100 to 1000,10 to 100
"COc1ccc2nc(Nc3ccc4c(c3)NC(=O)CS4)c3[nH]ncc3c2c1 [Example #94, 6-(8-Methoxy-3H-pyrazolo[3,4-c]quinolin-4-ylamino)-4H-benzo[1,4]thiazin-3-one]",10 to 100,10 to 100
"COc1ccc2nc(Nc3ccc(F)c(OC)c3)c3n[nH]cc3c2c1 [Example #124, (4-Fluoro-3-methoxy-phenyl)-(8-methoxy-2H-pyrazolo[3,4-c]quinolin-4-yl)-amine]",100 to 1000,10 to 100
"CS(=O)(=O)c1cccc(Nc2nc3cccc(F)c3c3cn[nH]c23)c1 [Example #362, 9-fluoro-N-(3-(methylsulfonyl)phenyl)-3H-pyrazolo[3,4-c]quinolin-4-amine]",100 to 1000,< 10
"COc1ccc(Nc2nc3cccc(OC)c3c3c[nH]nc23)cc1OC [Example #200, (3,4-Dimethoxy-phenyl)-(9-methoxy-2H-pyrazolo[3,4-c]quinolin-4-yl)-amine]",100 to 1000,100 to 1000
"COCCOc1ccc(Nc2nc3ccc(OC)cc3c3cn[nH]c23)cc1 [Example #104, [4-(2-Methoxy-ethoxy)-phenyl]-(8-methoxy-3H-pyrazolo[3,4-c]quinolin-4-yl)-amine]",100 to 1000,10 to 100
"COc1cccc2c1nc(Nc1ccc(C)cc1)c1n[nH]cc12 [Example #274, (6-Methoxy-2H-pyrazolo[3,4-c]quinolin-4-yl)-p-tolyl-amine]",100 to 1000,10 to 100
"CCOc1ccc(Nc2nc3ccc(OC)cc3c3cn[nH]c23)cc1OC [Example #105, (4-Ethoxy-3-methoxy-phenyl)-(8-methoxy-3H-pyrazolo[3,4-c]quinolin-4-yl)-amine]",100 to 1000,10 to 100
"COc1ccc2nc(Nc3ccc4c(c3)NCCO4)c3[nH]ncc3c2c1 [Example #109, (3,4-Dihydro-2H-benzo[1,4]oxazin-6-yl)-(8-methoxy-3H-pyrazolo[3,4-c]quinolin-4-yl)-amine]",10 to 100,10 to 100
"Brc1ccc2nc(Nc3cc[nH]n3)c3n[nH]cc3c2c1 [Example #119, (8-Bromo-2H-pyrazolo[3,4-c]quinolin-4-yl)-(1H-pyrazol-3-yl)-amine]",100 to 1000,100 to 1000

SMILES,IC50 (LRRK2) [nM],Ki (SYK kinase) [nM]
"COc1ccc2c(c1)nc(Nc1ccc3c(c1)NCCO3)c1n[nH]cc12 [Example #173, (3,4-Dihydro-2H-benzo[1,4]oxazin-6-yl)-(7-methoxy-2H-pyrazolo[3,4-c]quinolin-4-yl)-amine]",100 to 1000,10 to 100
"COc1ccc2nc(Nc3ccc4c(c3)NCCC4)c3n[nH]cc3c2c1 [Example #196, (8-Methoxy-2H-pyrazolo[3,4-c]quinolin-4-yl)-(1,2,3,4-tetrahydro-quinolin-7-yl)-amine]",100 to 1000,10 to 100
"COc1ccc(Nc2nc3ccccc3c3c(C)[nH]nc23)cc1OC [Example #207, (3,4-Dimethoxy-phenyl)-(1-methyl-2H-pyrazolo[3,4-c]quinolin-4-yl)-amine]",100 to 1000,10 to 100
"COc1ccc2nc(Nc3ccc4c(c3)NC(=O)CC4)c3n[nH]cc3c2c1 [Example #93, 7-(8-Methoxy-2H-pyrazolo[3,4-c]quinolin-4-ylamino)-3,4-dihydro-1H-quinolin-2-one]",< 10,< 10
"COc1ccc2c(c1)nc(Nc1ccc(OC)c(OC)c1)c1n[nH]cc12 [Example #175, (3,4-Dimethoxy-phenyl)-(7-methoxy-2H-pyrazolo[3,4-c]quinolin-4-yl)-amine]",100 to 1000,10 to 100
"COc1ccc(Nc2nc3ccc(OC)cc3c3c[nH]nc23)cc1 [Example #61, (4-Methoxy-phenyl)-(8-methoxy-2H-pyrazolo[3,4-c]quinolin-4-yl)-amine]",100 to 1000,10 to 100
"COc1ccc2c(c1)nc(Nc1ccc(N3CCOCC3)cc1)c1n[nH]cc12 [Example #177, (7-Methoxy-2H-pyrazolo[3,4-c]quinolin-4-yl)-(4-morpholin-4-yl-phenyl)-amine]",100 to 1000,< 10
"COc1ccc2nc(Nc3ccc4c(c3)c(C)c(C)n4C)c3n[nH]cc3c2c1 [Example #138, (8-Methoxy-2H-pyrazolo[3,4-c]quinolin-4-yl)-(1,2,3-trimethyl-1H-indol-5-yl)-amine]",100 to 1000,100 to 1000
"COc1ccc2c(c1)nc(Nc1ccc3[nH]ncc3c1)c1n[nH]cc12 [Example #256, (1H-Indazol-5-yl)-(7-methoxy-2H-pyrazolo[3,4-c]quinolin-4-yl)-amine]",100 to 1000,10 to 100
"COc1ccc(Nc2nc3cccc(F)c3c3cn[nH]c23)cc1OC [Example #361, N-(3,4-dimethoxyphenyl)-9-fluoro-3H-pyrazolo[3,4-c]quinolin-4-amine]",100 to 1000,100 to 1000
"COc1ccc2nc(Nc3cc(C4CCC4)n[nH]3)c3n[nH]cc3c2c1 [Example #85, (5-Cyclobutyl-2H-pyrazol-3-yl)-(8-methoxy-2H-pyrazolo[3,4-c]quinolin-4-yl)-amine]",< 10,< 10
"Brc1ccc2nc(Nc3ccc(N4CCOCC4)cc3)c3n[nH]cc3c2c1 [Example #115, (8-Bromo-2H-pyrazolo[3,4-c]quinolin-4-yl)-(4-morpholin-4-yl-phenyl)-amine]",100 to 1000,10 to 100
"COc1ccc2nc(Nc3ccc(F)cc3)c3n[nH]cc3c2c1 [Example #310, N-(4-fluorophenyl)-8-methoxy-2H-pyrazolo[3,4-c]quinolin-4-amine]",100 to 1000,10 to 100
"COc1ccc2nc(Nc3ccc4c[nH]nc4c3)c3n[nH]cc3c2c1 [Example #74, (1H-Indazol-6-yl)-(8-methoxy-2H-pyrazolo[3,4-c]quinolin-4-yl)-amine]",10 to 100,10 to 100
"O=C(c1ccc(Nc2nc3ccc(I)cc3c3cn[nH]c23)cc1)N1CCCC1 [Example #356, (4-((8-iodo-3H-pyrazolo[3,4-c]quinolin-4-yl)amino)phenyl)(pyrrolidin-1-yl)methanone]",100 to 1000,100 to 1000
"COc1ccc2nc(Nc3ccc4[nH]c(=O)oc(=O)c4c3)c3n[nH]cc3c2c1 [Example #117, 6-(8-Methoxy-2H-pyrazolo[3,4-c]quinolin-4-ylamino)-1H-benzo[d][1,3]oxazine-2,4-dione]",100 to 1000,100 to 1000
"COc1ccc2nc(Nc3ccc(C#N)cc3)c3n[nH]cc3c2c1 [Example #59, 4-(8-Methoxy-2H-pyrazolo[3,4-c]quinolin-4-ylamino)-benzonitrile]",100 to 1000,100 to 1000
"Ic1ccc2nc(Nc3ccc(N4CCOCC4)cc3)c3[nH]ncc3c2c1 [Example #355, 8-iodo-N-(4-morpholinophenyl)-3H-pyrazolo[3,4-c]quinolin-4-amine]",100 to 1000,10 to 100
"COc1ccc2nc(Nc3cc[nH]n3)c3n[nH]cc3c2c1 [Example #66, (8-Methoxy-2H-pyrazolo[3,4-c]quinolin-4-yl)-(1H-pyrazol-3-yl)-amine]",100 to 1000,10 to 100
